{
  "source": "a melting point compilation (Tetko et al.; mined from patent text by program, amines drawn as free bases though some values may be those of a salt)",
  "data": [
    {"units": {"melting point": "°C"}, "values": [
      {"compound": "COC(=O)C(c1ccccc1Cl)C1CNc2sc(OC(=O)c3ccc([N+](=O)[O-])cc3)cc2C1", "note": "(stereo not given)", "melting point": "100 to 102"},
      {"compound": "c1cn2nc(N3CCOCC3)c3c(c2n1)CCCC3", "melting point": "160 to 161"},
      {"compound": "CCCCCS(=O)(=O)NC(=O)CCc1ccc(OCCN2CCCC2=O)cc1Oc1ncc(C(F)(F)F)cc1Cl", "melting point": "123 to 126"},
      {"compound": "Cc1cccc(C)c1NC(=O)CC1CCN(CCC2CCOc3ccccc32)CC1", "note": "(stereo not given)", "melting point": 136},
      {"compound": "CCn1cnc2c(Nc3cccc(N)c3)nc(N[C@H]3CC[C@H](O)CC3)nc21", "melting point": "149 to 151"},
      {"compound": "COc1ccnc(CSc2nc3cc4c(cc3[nH]2)C(C)(C)C(=O)C4(C)C)c1C", "melting point": "218 to 220"},
      {"compound": "COc1cccc(-c2cnc3c(-c4cc(-c5ccccc5)cs4)cnn3c2O)c1", "melting point": "> 300"},
      {"compound": "COc1cc(C(CCl)(OC)OC)ccc1OS(=O)(=O)c1ccccc1", "melting point": 130},
      {"compound": "COc1cc2ncnc(N3CCc4ccc(Cl)cc43)c2cc1SC", "melting point": 210},
      {"compound": "Cn1nccc1COC(=O)Cc1ccccc1", "melting point": "80 to 83"},
      {"compound": "Nc1ccc(-c2cc(OCC(=O)N3CCOCC3)c3c(C(F)(F)F)cccc3n2)cc1", "melting point": 174},
      {"compound": "CC(=O)OCc1ccc(N(c2ccccc2)c2ccccc2)cc1", "melting point": "86 to 89"},
      {"compound": "Cc1ccccc1CSc1c(O)cc(-c2ccccc2)oc1=O", "melting point": "176 to 178"},
      {"compound": "NC(=O)N(O)CC#Cc1ccc(F)c(C2=N[C@H](c3ccccc3)CO2)c1", "melting point": "173 to 174"},
      {"compound": "CC(C)n1cc(C2CCC3(CC2)OCCO3)c2cc(C#N)ccc21", "melting point": "114 to 116"},
      {"compound": "NC(=O)C1CCc2ccc([N+](=O)[O-])cc21", "note": "(stereo not given)", "melting point": "144 to 145"},
      {"compound": "CC(C)Nc1cccnc1N1CCN(C(=O)c2ccc(C(=O)NCCN(C)C)cc2)CC1", "melting point": 133},
      {"compound": "Cc1cccc(-c2ccccc2)c1NC(=N)N(C)C", "melting point": "144 to 145"},
      {"compound": "CSc1ccc(N2CCOCC2)c(NC(=N)C(C)C)c1", "melting point": 155},
      {"compound": "Oc1nnc(-c2ccc(CN3CCCCCC3)s2)o1", "melting point": "117 to 119"},
      {"compound": "COc1ccc2cc(C=O)oc2c1", "melting point": "75 to 77"},
      {"compound": "COc1cc(C(=O)O)ccc1Cn1nc(O)c2ccc(NC(=O)CC3CCCC3)cc21", "melting point": "269 to 272"},
      {"compound": "CC(C)(C)C(NC(=O)c1ccc(Cl)cc1)NC(Nc1cccnc1)=C(C#N)C#N", "note": "(stereo not given)", "melting point": "213 to 214"},
      {"compound": "C=C(C)Cc1c(C)c(NC(=O)CC(C)(C)C)c(C)c(Cc2ccc(C(C)C)cc2)c1O", "melting point": "124 to 125"},
      {"compound": "COc1cccc(CN2C(=O)N(c3cnn(Cc4c(C)noc4C)c3)C(=O)C2(C)C)c1", "melting point": "107 to 108"},
      {"compound": "COCCOc1ccc(/C=C/C(=O)NS(=O)(=O)c2cccc(Cl)c2)c(Oc2ncc(C(F)(F)F)cc2Cl)c1", "melting point": "157 to 158"},
      {"compound": "NC(=O)c1ccc(F)c2c1OCC=C2", "melting point": "152 to 154"},
      {"compound": "[N-]=[N+]=NC1CC(n2cnc3c(NCC4CC4)nc(N)nc32)OC1CO", "note": "(stereo not given)", "melting point": "104 to 106"},
      {"compound": "CCOC(=O)Cc1cc(-c2ccccc2)nc2ccccc12", "melting point": 180},
      {"compound": "Nc1ccccc1NCC12CC3CC(CC(C3)C1)C2", "melting point": "101 to 104"},
      {"compound": "CCN(CC)Cc1nc(Cn2cnc3c2c(=O)n(C)c(=O)n3C)no1", "melting point": "68 to 70"},
      {"compound": "CC(=O)Nc1cc(C(F)(F)F)ccc1N1CCc2ccccc21", "melting point": "153 to 155"},
      {"compound": "COc1cc2c(cc1OCc1ccccc1)CCN(C(=O)c1cc(OC)c(OC)c(OC)c1)C2=O", "melting point": "195 to 196"},
      {"compound": "CCOC(=O)NC[C@H]1CN(c2ccc(N3CCC(n4ncnn4)CC3)c(F)c2)C(=O)O1", "melting point": "176 to 178"},
      {"compound": "COC(=O)[C@H]1C[C@H](NC(=O)Nc2ccc(I)cc2)c2c(Cl)cc(Cl)cc2N1", "note": "(relative stereo)", "melting point": "253 to 255"},
      {"compound": "CC(C)(C)[C@H]1CC[C@@H](Nc2nnc(CCc3cccnc3)c3ccccc23)CC1", "melting point": "155 to 157"},
      {"compound": "Cc1cccc2sc(-c3ccccn3)nc(=O)c12", "melting point": 151},
      {"compound": "COc1ccc(C(=O)Nc2ccccc2)cc1NCc1cccc(F)c1F", "melting point": "134 to 135"},
      {"compound": "CCOC(=O)Cc1ccc2c(c1)sc1ccc(C)cc12", "melting point": "45 to 48"},
      {"compound": "C=CC(=O)NCc1c(-c2ccccc2)noc1C", "melting point": "149 to 151"},
      {"compound": "CCCCOc1nc(N)c2nc(Br)n(C3CCCCO3)c2n1", "note": "(stereo not given)", "melting point": "148 to 150"},
      {"compound": "Cn1nc(N)cc1COCc1ccccc1", "melting point": 214},
      {"compound": "COc1cc(OC)cc(N2CCN(C(=O)Nc3cc(C(C)O)c(C)nc3OC)CC2)c1", "note": "(stereo not given)", "melting point": "124 to 126"},
      {"compound": "CCCC1OCc2c(O)c(C)nc(Cl)c21", "note": "(stereo not given)", "melting point": 242},
      {"compound": "O=C(Cl)N(OCc1ccccc1)C1c2ccccc2Oc2ccccc21", "melting point": 117},
      {"compound": "CC1(C)CC(=C(c2ccc(O)cc2)c2ccc(S(C)(=O)=O)cc2)CC(C)(C)C1", "melting point": "149 to 150"},
      {"compound": "C#CCSc1ccc([N+](=O)[O-])cn1", "melting point": "98 to 99.5"},
      {"compound": "O=C(O)CNC(=O)Cc1ccc(Cl)cc1SC(=O)c1ccccc1", "melting point": "158 to 159"},
      {"compound": "CCc1c(OCc2ccccc2)nc(OCc2ccccc2)nc1C(=O)c1cc(C)cc(C#N)c1", "melting point": "123 to 124"},
      {"compound": "COCC1CN(c2ccc(C3CCC(OC(c4ccccc4)c4ccccc4)CC3)cc2)C(=O)O1", "note": "(racemic)", "melting point": "146 to 148"}
    ]}
  ]
}
